Here are results for ten compounds from BindingDB's records for patent US12304898 (Primegene (Beijing), 2025).

One assay has as its target T1, Histone deacetylase 6 (Homo sapiens, UniProt Q9UBN7).
T1 sequence (Q9UBN7 whole entry): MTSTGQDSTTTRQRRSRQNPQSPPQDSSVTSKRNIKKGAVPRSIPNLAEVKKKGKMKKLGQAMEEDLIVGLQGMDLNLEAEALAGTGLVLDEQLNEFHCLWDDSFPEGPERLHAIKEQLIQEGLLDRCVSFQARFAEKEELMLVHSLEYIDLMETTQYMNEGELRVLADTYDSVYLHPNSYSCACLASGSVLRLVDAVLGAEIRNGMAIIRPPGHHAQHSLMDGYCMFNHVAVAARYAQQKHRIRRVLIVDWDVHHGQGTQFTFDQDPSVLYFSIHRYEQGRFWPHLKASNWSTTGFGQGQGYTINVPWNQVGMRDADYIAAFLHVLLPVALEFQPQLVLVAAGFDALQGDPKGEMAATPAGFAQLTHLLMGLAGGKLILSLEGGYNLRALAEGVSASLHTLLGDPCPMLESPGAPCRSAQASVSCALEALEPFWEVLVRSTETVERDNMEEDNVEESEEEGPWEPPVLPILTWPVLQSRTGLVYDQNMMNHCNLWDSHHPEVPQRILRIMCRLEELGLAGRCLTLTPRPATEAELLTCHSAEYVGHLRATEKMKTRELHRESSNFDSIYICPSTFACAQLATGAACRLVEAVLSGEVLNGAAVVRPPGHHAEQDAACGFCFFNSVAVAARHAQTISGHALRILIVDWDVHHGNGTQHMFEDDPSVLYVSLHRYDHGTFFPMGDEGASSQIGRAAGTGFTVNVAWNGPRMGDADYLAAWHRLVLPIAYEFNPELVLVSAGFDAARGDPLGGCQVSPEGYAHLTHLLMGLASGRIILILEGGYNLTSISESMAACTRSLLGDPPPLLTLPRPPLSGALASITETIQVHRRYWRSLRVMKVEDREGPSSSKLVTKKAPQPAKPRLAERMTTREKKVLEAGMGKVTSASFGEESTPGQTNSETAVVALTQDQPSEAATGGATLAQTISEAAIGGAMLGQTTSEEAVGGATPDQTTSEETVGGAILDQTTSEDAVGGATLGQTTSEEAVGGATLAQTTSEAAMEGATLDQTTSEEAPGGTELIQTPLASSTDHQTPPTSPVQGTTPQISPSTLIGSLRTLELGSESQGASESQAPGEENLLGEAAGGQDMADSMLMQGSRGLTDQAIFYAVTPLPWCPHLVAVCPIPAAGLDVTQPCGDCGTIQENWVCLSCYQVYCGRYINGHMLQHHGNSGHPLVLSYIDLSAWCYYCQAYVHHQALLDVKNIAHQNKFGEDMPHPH
Put plainly: Inhibitory Activity of the Compounds on HDAC6. The method, then: Prepare a 10 mM stock solution of a compound with DMSO. Take 10 μl of stock solution and dilute with 90 μl DMSO to become a 1 mM working solution. […] Add 30 μl trypsin/SAHA mixture (20 mM Hepes pH 8.0, 100 mM NaCl, 10 mM SAHA, 0.01 mg/ml trypsin), incubate at 23° C. for 60 minutes to terminate the reaction. Finally, read fluorescence data by Envision (390 nm excitation, 460 nm emission). […] Finally, analyze the data by XLfit5 software and calculate the IC50 value of the compound. Vorinostat (SAHA) was a positive reference compound.

Assay [1] addresses Vascular endothelial growth factor receptor 2 (Homo sapiens, UniProt P35968). Put plainly: Inhibitory Activities of the Compounds on VEGFR2. The procedure: Detect compounds on VEGFR2 (KDR) by mobility shift assay. The initial test concentration of a compound was 1000 nM, 3 times dilution, 10 concentrations, and detection in duplicate. Nintedanib (Selleckchem, Cat. S1010) was used as the positive control compound. The operation method was briefly described as follows: kinase VEGFR2 (Carna, Cat. 08-191) at the final concentration of 0.5 nM and the test compound were mixed in the Optiplate-384F well plate and incubated for 10 minutes at room temperature. Then, ATP at a final concentration of 95 μM and 3 μM Kinase substrate 22 (Gill Biochemical (glbiochem), Cat. 112393) were added. After mixing, react at room temperature for 30 minutes. Add stop detection solution to terminate the reaction and read the conversion rate with Caliper EZ ReaderlI.

By IC50 is commonly meant the concentration that gives 50% inhibition.

Chain of Vascular endothelial growth factor receptor 2 (P35968 whole entry): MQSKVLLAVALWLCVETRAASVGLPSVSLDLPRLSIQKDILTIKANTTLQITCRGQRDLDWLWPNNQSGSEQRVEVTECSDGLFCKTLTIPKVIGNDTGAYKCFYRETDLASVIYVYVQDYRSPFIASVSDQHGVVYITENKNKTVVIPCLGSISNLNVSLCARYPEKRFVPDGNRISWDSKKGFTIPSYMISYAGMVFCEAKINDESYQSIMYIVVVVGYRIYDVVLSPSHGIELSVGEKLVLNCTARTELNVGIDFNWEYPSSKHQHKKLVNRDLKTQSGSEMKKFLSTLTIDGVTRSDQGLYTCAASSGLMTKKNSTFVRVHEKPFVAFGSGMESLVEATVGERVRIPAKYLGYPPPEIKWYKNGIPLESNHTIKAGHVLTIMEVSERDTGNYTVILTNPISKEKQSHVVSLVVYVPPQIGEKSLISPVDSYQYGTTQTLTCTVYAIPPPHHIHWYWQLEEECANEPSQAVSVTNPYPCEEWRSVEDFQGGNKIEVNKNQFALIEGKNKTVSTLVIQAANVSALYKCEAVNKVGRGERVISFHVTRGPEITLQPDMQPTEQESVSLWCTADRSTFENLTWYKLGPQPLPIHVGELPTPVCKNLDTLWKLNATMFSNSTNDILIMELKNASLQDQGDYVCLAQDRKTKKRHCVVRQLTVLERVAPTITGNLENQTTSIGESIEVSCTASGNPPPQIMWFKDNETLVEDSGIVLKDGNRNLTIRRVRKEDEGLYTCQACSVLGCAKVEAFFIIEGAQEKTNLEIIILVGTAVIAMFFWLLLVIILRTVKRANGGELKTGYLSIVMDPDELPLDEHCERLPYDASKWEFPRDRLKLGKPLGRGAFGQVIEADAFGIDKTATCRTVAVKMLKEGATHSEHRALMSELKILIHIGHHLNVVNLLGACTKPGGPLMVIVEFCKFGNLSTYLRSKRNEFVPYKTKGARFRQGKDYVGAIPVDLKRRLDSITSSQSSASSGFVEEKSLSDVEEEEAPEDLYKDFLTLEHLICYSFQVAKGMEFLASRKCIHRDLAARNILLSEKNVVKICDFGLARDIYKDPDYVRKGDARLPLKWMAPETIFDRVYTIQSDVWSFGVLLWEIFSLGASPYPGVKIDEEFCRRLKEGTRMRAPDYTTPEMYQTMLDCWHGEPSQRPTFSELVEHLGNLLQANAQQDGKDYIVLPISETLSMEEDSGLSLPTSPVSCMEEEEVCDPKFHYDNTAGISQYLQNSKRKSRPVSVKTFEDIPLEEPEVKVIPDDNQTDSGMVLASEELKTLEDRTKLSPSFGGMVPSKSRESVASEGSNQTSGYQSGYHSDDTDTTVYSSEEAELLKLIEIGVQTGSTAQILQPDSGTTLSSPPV

On to `COc1cc2c(Oc3ccc(NC(=O)C4(C(=O)Nc5ccc(F)cc5)CC4)cc3F)ccnc2cc1OCCCCNC(=O)CSC(C)=O` [US12304898, Example 61], for which the IC50 was determined as 29.9 nM at Histone deacetylase 6 and 12 nM in assay [1].
In assay [1], `CC(=O)SCC(=O)NCCCCCOc1cc2nccc(Oc3ccc(NC(=O)C4(C(=O)NC5CC5)CC4)cc3F)c2cc1C(N)=O` [US12304898, Example 73] returned an IC50 of 45 nM.
Turning to `COc1cc2c(Oc3ccc(NC(=O)C4(C(=O)Nc5ccc(F)cc5)CC4)cc3F)ccnc2cc1OCCCNCCCS` [US12304898, Example 51], in assay [1], the IC50 was found to be 7.7 nM.
`COc1cc2c(Oc3ccc(NC(=O)C4(C(=O)Nc5ccc(F)cc5)CC4)cc3F)ccnc2cc1OCCCN(C)CCCS` [US12304898, Example 53]: the midpoint of inhibition in assay [1], the IC50, lay at 4.7 nM.
As for `COc1cc2c(Oc3ccc(NC(=O)C4(C(=O)Nc5ccc(F)cc5)CC4)cc3F)ccnc2cc1OCCCCCCNC(=O)CSC(C)=O` [US12304898, Example 63], the IC50 was 97.8 nM against Histone deacetylase 6 and 36 nM in assay [1].
`COc1cc2c(Oc3ccc(NC(=O)C4(C(=O)NC5CC5)CC4)cc3F)ccnc2cc1OCCCCCNC(=O)CSC(C)=O` [US12304898, Example 67]: the IC50 in assay [1] turned out to be 30 nM.
As to `COc1cc2c(Oc3ccc(NC(=O)C4(C(=O)Nc5ccc(F)cc5)CC4)cc3F)ccnc2cc1OCCCN(C)CCCSC(C)=O` [US12304898, Example 52], half-maximal inhibition in assay [1] (IC50) was put at 3.2 nM.
As to `COc1cc2c(Oc3ccc(NC(=O)C4(C(=O)Nc5ccc(F)cc5)CC4)cc3F)ccnc2cc1OCCCCCNC(=O)CSC(C)=O` [US12304898, Example 57], the IC50 at Histone deacetylase 6 was determined as 48.3 nM; in assay [1] it was 20 nM.
For `COc1cc2c(Oc3ccc(NC(=O)C4(C(=O)Nc5ccc(F)cc5)CC4)cc3F)ccnc2cc1OCCCNCCCSC(C)=O` [US12304898, Example 50], the IC50 in assay [1] came to 6.6 nM.
`COc1cc2c(Oc3ccc(NC(=O)C4(C(=O)Nc5ccc(F)cc5)CC4)cc3F)ccnc2cc1OCCCCCNC(=O)CS` [US12304898, Example 58]: the IC50 on Histone deacetylase 6 is 15.4 nM; in assay [1] it was 25 nM.
